From PubChem BioAssay (NCI)
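Protocol summary: plate cells (96-well), add compound at 5 concentrations, incubate 48 h, interpolate endpoints linearly. Abbreviation: GI50, concentration required for 50% inhibition of growth. At the TGI there is no net growth.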

What was measured:
Assay in all cases: NCI tumour cell line growth inhibition, 48 h
HCC-2998 colon = system: HCC-2998 colon
HOP-62 NSCLC = system: HOP-62 NSCLC
CCRF-CEM leukemia = system: CCRF-CEM leukemia
IGROV1 ovarian = system: IGROV1 ovarian
SF-295 CNS = system: SF-295 CNS
K-562 leukemia = system: K-562 leukemia
UO-31 renal = system: UO-31 renal
PC-3 prostate = system: PC-3 prostate
NCI-H23 lung = system: NCI-H23 lung
NCI-H522 lung = system: NCI-H522 lung

Row | Compound | TGI (HCC-2998 colon) [µM] | TGI (HOP-62 NSCLC) [µM] | TGI (CCRF-CEM leukemia) [µM] | TGI (IGROV1 ovarian) [µM] | TGI (SF-295 CNS) [µM] | TGI (K-562 leukemia) [µM] | TGI (UO-31 renal) [µM] | TGI (PC-3 prostate) [µM] | TGI (NCI-H23 lung) [µM] | GI50 (HCC-2998 colon) [µM] | GI50 (HOP-62 NSCLC) [nM] | GI50 (CCRF-CEM leukemia) [nM] | GI50 (IGROV1 ovarian) [pM] | GI50 (SF-295 CNS) [nM] | GI50 (K-562 leukemia) [pM] | GI50 (UO-31 renal) [nM] | GI50 (NCI-H522 lung) [pM] | GI50 (NCI-H23 lung) [pM] | TGI (NCI-H522 lung) [µM]
1 | CCOC(=O)NC(Nc1ccc(S(=O)(=O)Nc2nc(C)cc(C)n2)cc1)(C(=O)OCC)C(F)(F)F (stereo unspecified) | > 100 | > 100 | > 100 | > 100 | > 100 | > 100 | > 100 | > 100 | > 100 | – | – | – | – | – | – | – | – | – | –
2 | CCC(/C=C/C1OC(=O)C=CC1C)=C\C(C)C/C=C/C(C)=C/C(C)C(=O)C(C)C(O)C(C)C/C(C)=C/C(=O)O (stereo unspecified) | – | – | – | 16 | 2.39 | – | – | – | 3.87 | 2.44 | 0.0236 | < 0.001 | 7.48 | 0.0179 | < 1 | 0.0312 | 6.22 | 6.52 | –
3 | O=C(O)C(NCc1ccccc1)C(NCc1ccccc1)C(=O)O (stereo unspecified) | > 100 | > 100 | > 100 | > 100 | > 100 | > 100 | > 100 | – | > 100 | – | – | – | – | – | – | – | – | – | > 100
4 | COc1ccc2cc(/C=N/NC(=O)Nc3ccccc3)ccc2c1 | > 100 | > 100 | > 100 | > 100 | > 100 | > 100 | > 100 | > 100 | > 100 | – | – | – | – | – | – | – | – | – | –
5 | COc1ccc(P2(=S)OC(C)(C)C(C)(C)O2)cc1 | – | > 100 | > 100 | > 100 | > 100 | > 100 | > 100 | > 100 | > 100 | – | – | – | – | – | – | – | – | – | > 100
6 | CC(=O)Oc1ccc2c(C)cc(=O)oc2c1OC(C)=O | – | > 100 | 83.7 | 92.9 | > 100 | > 100 | 76.9 | > 100 | > 100 | – | – | – | – | – | – | – | – | – | –
7 | COC(=O)c1cc2ccc(N)nc2[nH]c1=O | > 100 | > 100 | – | > 100 | > 100 | – | > 100 | > 100 | > 100 | – | – | – | – | – | – | – | – | – | > 100
8 | Cc1ccc(-n2c(N)c(C#N)c3[nH]nc(N)c3c2=O)cc1 | > 100 | > 100 | > 100 | > 100 | > 100 | > 100 | > 100 | > 100 | > 100 | – | – | – | – | – | – | – | – | – | –
9 | Cc1cc2oc(=N)c(C#N)c(C)c2cc1C | > 100 | > 100 | > 100 | > 100 | > 100 | > 100 | > 100 | > 100 | > 100 | – | – | – | – | – | – | – | – | – | –
10 | C=C(C)[C@@H]1CC[C@]2(C(=O)NC3CCCCC3)CC[C@]3(C)[C@H](CC[C@@H]4[C@@]5(C)CCCNC(C)(C)[C@@H]5CC[C@]43C)[C@@H]12 | – | – | 6.68 | – | – | – | 2.73 | – | – | – | – | 2300 | – | – | – | 1420 | – | – | –
11 | COc1ccc(C(OCC2OC(n3cc(C)c(=O)[nH]c3=O)CC2n2cc(Cn3cc(Cl)c(=O)[nH]c3=O)nn2)(c2ccccc2)c2ccccc2)cc1 (stereo unspecified) | > 100 | > 100 | – | > 100 | > 100 | – | > 100 | > 100 | > 100 | – | – | – | – | – | – | – | – | – | > 100
12 | CN(C)C1(N(C)C)Oc2c(c(=O)n(C)c(=O)n2C)C(c2ccccc2)C1(F)F (stereo unspecified) | > 100 | > 100 | > 100 | – | > 100 | > 100 | > 100 | > 100 | > 100 | – | – | – | – | – | – | – | – | – | –
13 | N#Cc1c(N)n(-c2cccc(C(=O)O)c2)c(=O)c2cc([N+](=O)[O-])ccc12 | > 100 | – | – | – | – | > 100 | > 100 | > 100 | > 100 | – | – | – | – | – | – | – | – | – | –
14 | c1ccc(CCNc2ccccn2)nc1 | > 100 | > 100 | > 100 | > 100 | > 100 | – | > 100 | > 100 | > 100 | – | – | – | – | – | – | – | – | – | > 100
15 | S=c1sc2c(Cl)nc(Cl)nc2n1-c1ccccc1 | > 100 | > 100 | 75.8 | 33.6 | > 100 | > 100 | > 100 | – | 32.9 | – | – | – | – | – | – | – | – | – | 23.8
16 | O=c1[nH]nc(Cc2ccccc2)n1/N=C/c1ccccc1O | > 100 | 99.8 | > 100 | > 100 | > 100 | > 100 | > 100 | – | > 100 | – | – | – | – | – | – | – | – | – | > 100
17 | Cc1c(N=Nc2ccc(Cl)cc2)c(-c2ccccc2)n(C2OC(CO)C(O)C(O)C2O)c(=S)c1C#N (stereo unspecified) | – | 34.4 | 87.5 | 29.5 | 73.9 | 41.3 | 34.2 | 22.4 | 22.5 | – | – | – | – | – | – | – | – | – | –
18 | CCOC(=O)c1nnc2c(C(=O)OCC)c3ccccc3n2c1N | > 100 | > 100 | – | 38.2 | > 100 | > 100 | > 100 | > 100 | > 100 | – | – | – | – | – | – | – | – | – | > 100
